Results: patent US7101533B2, “Agent for inducing receptor potential” (Kabushiki Kaisha Hayashibara Seibutsu Kagaku Kenkyujo, priority 2002, dated 2006)

Test system: retinal nerve cells
Test: intracellular calcium experimental method in cultured chick embryo retinal cells with photostimulation (Fluo-4 fluorescence and intracellular potential)
Format: cell-based
Text: All the above polymethine organic dye compounds can be obtained in the desired amount either by the method disclosed in “Kanko-Shikiso” (Photosynthetic Dyes), pp. 11–31, edited by Masaaki Hayami, published by Sangyo Tosho Publisher on Oct. 17, 1997; or in accordance therewith. In case the compounds are commercially available, they can be optionally purified prior to use. Evaluation of whether organic dye compounds evoke receptor potential in response to photostimulation in the optic nerve can be determined in accordance with the intracellular calcium experiment method disclosed in “Jikken-Igaku” (Experimental Medicine), Vol. 7, No. 6, edited by Hideaki Karaki et al., published on Apr. 5, 1989 by Yodosha, Co., Ltd., Tokyo, Japan, with a modification that an organic dye compound to be tested coexists in animal retinal cells cultured in a nutrient culture medium containing a fluorescent calcium indicator, followed by detecting the intensity of fluorescence emitted from the indicator or of the electric potential generated intracellularly. […]
Thereafter, Fluo-4 acetoxymethyl ester, commercialized by Molecular Probe, Oregon, U.S.A., a fluorescent calcium indicator, was added to each well of the culture plates to give a concentration of 10 μM, incubated at 37° C. for 30 min, and further incubated for another 30 min similarly as above except for omitting Fluo-4 acetoxymethyl ester. […] The organic dye compounds in Table 1 were respectively dissolved in dimethylsulfoxide and irradiated with a light having a wavelength of 470 to 490 nm to excite Fluo-4 acetoxymethyl ester before or after being added to each culture in each well to give a concentration of 0.0005 to 0.5 μg/ml, followed by detecting the intensity of fluorescence and the intracellular potential at a wavelength of around 510 to 550 nm emitted from the excited Fluo-4 acetoxymethyl ester. […]

Question: For `CCCC1=NN(c2ccc(S(=O)(=O)[O-])cc2)C(=O)C1=CC=C(C=Cc1c(CCC)nn(-c2ccc(S(=O)(=O)[O-])cc2)c1[O-])c1ccccc1.[Na+].[Na+].[Na+]` [Chemical Formula 14], which “Fluorescent intensity With calcicludine” value (as above, with 2.5 μM of calcicludine (antagonist of L-, N-, P-type high-threshold calcium channels)) is on record?
Answer: Unchanged

Question: What about the “Fluorescent intensity Without calcicludine” value (chick embryo retinal nerve cells loaded with Fluo-4 acetoxymethyl ester, dye 0.0005 to 0.5 μg/ml, light 470 to 490 nm, emission around 510 to 550 nm, no calcicludine) of the same molecule?
Answer: Increased

Question: And the Intracellular potential (receptor potential observed as intracellular potential, dye 0.0005 to 0.5 μg/ml, light 470 to 490 nm, absence of calcicludine)?
Answer: Detected
